# Assay results: ChEMBL document CHEMBL1201861, “Genomics of Drug Sensitity in Cancer screening data, Wellcome Trust Sanger Institute”
# pIC50: −log10 of the molar value.
# Assays:
# Assay in all cases: cells
# ES6 = assay type: functional, cell-based, Homo sapiens; conditions: Homo sapiens, ES6;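 further: growth inhibition of human ES6 cells, read out with a cell viability assay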
# Description: SANGER: Inhibition of human ES6 cell growth in a cell viability assay.
# NTERA-2-cl-D1 = assay type: functional, cell-based, Homo sapiens; conditions: Homo sapiens, NTERA-2-cl-D1;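 further: inhibition of cell growth, measured with a cell viability assay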
# Description: SANGER: Inhibition of human NTERA-S-cl-D1 cell growth in a cell viability assay.
# HL-60 = assay type: functional, cell-based; conditions: Homo sapiens;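 further: growth inhibition of human HL-60 cells, read out with a cell viability assay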
# Description: SANGER: Inhibition of human HL-60 cell growth in a cell viability assay.
# ALL-PO = assay type: functional, cell-based; conditions: Homo sapiens;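 further: growth inhibition of ALL-PO cells, read out by a cell viability assay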
# Description: SANGER: Inhibition of human ALL-PO cell growth in a cell viability assay.
# SCC-15 = assay type: functional, cell-based, Homo sapiens; conditions: Homo sapiens, SCC-15;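 further: growth inhibition of SCC-15 cells, read out with a cell viability assay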
# Description: SANGER: Inhibition of human SCC-15 cell growth in a cell viability assay.
# BV-173 = assay type: functional, cell-based; conditions: Homo sapiens
# Description: SANGER: Inhibition of human BV-173 cell growth in a cell viability assay.
# TE-6 = assay type: functional, cell-based, Homo sapiens; conditions: Homo sapiens, TE-6;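 further: growth inhibition of TE-6 cells, read out with a cell viability assay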
# Description: SANGER: Inhibition of human TE-6 cell growth in a cell viability assay.
# MZ7-mel = assay type: functional, cell-based, Homo sapiens; conditions: Homo sapiens, MZ7-mel;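 further: growth inhibition of human MZ7-mel cells, measured by a cell viability assay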
# Description: SANGER: Inhibition of human MZ7-mel cell growth in a cell viability assay.
# NCI-H1648 = assay type: functional, cell-based, Homo sapiens; conditions: Homo sapiens, NCI-H1648;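 further: cell viability assay measuring inhibition of NCI-H1648 cell growth, from the Sanger screening data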
# Description: SANGER: Inhibition of human NCI-H1648 cell growth in a cell viability assay.
# DOHH-2 = assay type: functional, cell-based; conditions: Homo sapiens;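 further: growth inhibition of human DOHH-2 cells, read out with a cell viability assay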
# Description: SANGER: Inhibition of human DOHH-2 cell growth in a cell viability assay.
# MHH-PREB-1 = assay type: functional, cell-based; conditions: Homo sapiens;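 further: cell viability assay measuring inhibition of proliferation of human MHH-PREB-1 cells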
# Description: SANGER: Inhibition of human MHH-PREB-1 cell growth in a cell viability assay.
# ONS-76 = assay type: functional, cell-based, Homo sapiens; conditions: Homo sapiens, ONS-76;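 further: growth inhibition of human ONS-76 cells, read out with a cell viability assay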
# Description: SANGER: Inhibition of human ONS-76 cell growth in a cell viability assay.
# A388 = assay type: functional, cell-based, Homo sapiens; conditions: Homo sapiens, A388;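 further: growth inhibition of human A388 cells, read out with a cell viability assay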
# Description: SANGER: Inhibition of human A388 cell growth in a cell viability assay.
# MZ2-MEL = assay type: functional, cell-based, Homo sapiens; conditions: Homo sapiens, MZ2-MEL;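 further: growth inhibition of MZ2-MEL cells read out with a cell viability assay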
# Description: SANGER: Inhibition of human MZ2-MEL cell growth in a cell viability assay.
# EM-2 = assay type: functional, cell-based; conditions: Homo sapiens;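 further: growth inhibition of EM-2 cells, read out with a cell viability assay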
# Description: SANGER: Inhibition of human EM-2 cell growth in a cell viability assay.
# DU-4475 = assay type: functional, cell-based; conditions: Homo sapiens
# Description: SANGER: Inhibition of human DU-4475 cell growth in a cell viability assay.
# TE-8 = assay type: functional, cell-based, Homo sapiens; conditions: Homo sapiens, TE-8;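 further: growth inhibition of TE-8 cells, measured with a cell viability readout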
# Description: SANGER: Inhibition of human TE-8 cell growth in a cell viability assay.
# LS-411N = assay type: functional, cell-based, Homo sapiens; conditions: Homo sapiens, LS-411N
# COLO-668 = assay type: functional, cell-based, Homo sapiens; conditions: Homo sapiens, COLO-668
# Description: SANGER: Inhibition of human COLO-668 cell growth in a cell viability assay.
# EW-13 = assay type: functional, cell-based; conditions: Homo sapiens;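 further: growth inhibition of EW-13 cells, read out with a cell viability assay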
# Description: SANGER: Inhibition of human EW-13 cell growth in a cell viability assay.
# 8-MG-BA = assay type: functional, cell-based, Homo sapiens; conditions: Homo sapiens, 8-MG-BA;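 further: growth inhibition of 8-MG-BA cells, read out with a cell viability assay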
# Description: SANGER: Inhibition of human 8-MG-BA cell growth in a cell viability assay.
# DMS-79 = assay type: functional, cell-based; conditions: Homo sapiens;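 further: growth inhibition measured with a cell viability assay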
# Description: SANGER: Inhibition of human DMS-79 cell growth in a cell viability assay.
# CGTH-W-1 = assay type: functional, cell-based, Homo sapiens; conditions: Homo sapiens, CGTH-W-1;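 further: growth inhibition of human CGTH-W-1 cells measured by cell viability assay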
# Description: SANGER: Inhibition of human CGTH-W-1 cell growth in a cell viability assay.
# JVM-2 = assay type: functional, cell-based; conditions: Homo sapiens;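 further: growth inhibition of JVM-2 cells determined by a cell viability assay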
# Description: SANGER: Inhibition of human JVM-2 cell growth in a cell viability assay.
# SW 954 = assay type: functional, cell-based, Homo sapiens; conditions: Homo sapiens, SW 954;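 further: growth inhibition of SW954 human cancer cells, read out as cell viability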
# Description: SANGER: Inhibition of human SW954 cell growth in a cell viability assay.
# KY821 = assay type: functional, cell-based; conditions: Homo sapiens;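 further: growth inhibition of human KY821 cells, read out by a cell viability assay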
# Description: SANGER: Inhibition of human KY821 cell growth in a cell viability assay.
# NB5 = assay type: functional, cell-based, Homo sapiens; conditions: Homo sapiens, NB5;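 further: growth inhibition of NB5 cells, read out as cell viability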
# Description: SANGER: Inhibition of human NB5 cell growth in a cell viability assay.
# LOX IMVI = assay type: functional, cell-based; conditions: Homo sapiens
# Description: SANGER: Inhibition of human LOXIMVI cell growth in a cell viability assay.
# LC-2-ad = assay type: functional, cell-based, Homo sapiens; conditions: Homo sapiens, LC-2-ad;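 further: growth inhibition of human LC-2-ad cells, read out with a cell viability assay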
# Description: SANGER: Inhibition of human LC-2-ad cell growth in a cell viability assay.
Structure (SMILES),pIC50 (ES6),pIC50 (NTERA-2-cl-D1),pIC50 (HL-60),pIC50 (ALL-PO),pIC50 (BV-173),pIC50 (TE-6),pIC50 (MZ7-mel),pIC50 (NCI-H1648),pIC50 (DOHH-2),pIC50 (MHH-PREB-1),pIC50 (ONS-76),pIC50 (A388),pIC50 (MZ2-MEL),pIC50 (EM-2),pIC50 (DU-4475),pIC50 (TE-8),pIC50 (LS-411N),pIC50 (COLO-668),pIC50 (EW-13),pIC50 (8-MG-BA),further results
CC1=C2C[C@H]3[C@@H](CC=C4C[C@@H](O)CC[C@@]43C)[C@@H]2CC[C@]12O[C@@H]1C[C@H](C)CN[C@H]1[C@H]2C [CYCLOPAMINE],< 4.80,< 4.80,< 4.80,4.93,< 4.80,< 4.80,< 4.80,< 4.80,5.03,< 4.80,< 4.80,< 4.80,< 4.80,< 4.80,< 4.80,< 4.80,< 4.80,< 4.80,< 4.80,4.88,pIC50 (SCC-15): < 4.80; pIC50 (DMS-79): < 4.80; pIC50 (CGTH-W-1): < 4.80; pIC50 (JVM-2): < 4.80; pIC50 (SW 954): < 4.80; pIC50 (KY821): < 4.80; pIC50 (NB5): < 4.80; pIC50 (LOX IMVI): < 4.80; pIC50 (LC-2-ad): < 4.80
C=C1C(=O)O[C@@H]2C3O[C@]3(C)CC/C=C(\C)CC[C@@H]12 (stereo not given in full),< 5.30,< 5.30,< 5.30,< 5.30,< 5.30,< 5.30,< 5.30,< 5.30,< 5.30,< 5.30,< 5.30,< 5.30,< 5.30,< 5.30,< 5.30,< 5.30,< 5.30,< 5.30,< 5.30,< 5.30,pIC50 (DMS-79): < 5.30; pIC50 (CGTH-W-1): < 5.30; pIC50 (JVM-2): < 5.30; pIC50 (SW 954): < 5.30; pIC50 (KY821): < 5.30; pIC50 (NB5): < 5.30; pIC50 (LOX IMVI): < 5.30; pIC50 (LC-2-ad): < 5.30
CCc1nc(N)nc(N)c1-c1ccc(Cl)cc1 [PYRIMETHAMINE],4.76,< 4.70,< 4.70,5.93,4.90,< 4.70,5.12,< 4.70,< 4.70,< 4.70,5.01,< 4.70,< 4.70,4.91,< 4.70,< 4.70,6.08,< 4.70,< 4.70,< 4.70,pIC50 (DMS-79): < 4.70; pIC50 (CGTH-W-1): 4.76; pIC50 (JVM-2): < 4.70; pIC50 (SW 954): < 4.70; pIC50 (KY821): < 4.70; pIC50 (NB5): < 4.70; pIC50 (LOX IMVI): 4.89; pIC50 (LC-2-ad): < 4.70
